Results taken from patent US10689383B2, “Optionally fused heterocyclyl-substituted derivatives of pyrimidine useful for the treatment of inflammatory, metabolic, oncologic and autoimmune diseases” (NUEVOLUTION A/S, priority 2014, dated 2020).

Biological target: T1, human RORγt (Ligand Binding Domain) (Homo sapiens, UniProt P51449)
T1 construct: purchased Crelux (Planegg, Germany) batch no PC5032-1
T1 sequence (P51449 269-508 limits assumed): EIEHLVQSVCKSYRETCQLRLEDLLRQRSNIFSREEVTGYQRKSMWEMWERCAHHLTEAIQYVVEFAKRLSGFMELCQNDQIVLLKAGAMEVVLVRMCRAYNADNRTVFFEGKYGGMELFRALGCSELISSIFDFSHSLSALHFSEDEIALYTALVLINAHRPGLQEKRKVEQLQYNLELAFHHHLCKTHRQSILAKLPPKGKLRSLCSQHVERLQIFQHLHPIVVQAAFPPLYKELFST
Experiment: Fluorescence Polarization (FP) Assay
Settings: Fluorescence Polarization (FP) Assay; values given as upper bounds of activity ranges; read-out: FP activity range
How it was run: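 Binding to the ligand pocket followed by fluorescence polarization with a TAMRA-tagged RORγt ligand probe of 910 g/mole. Negative control wells received DMSO only.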

| Compound | IC50 |
| --- | --- |
| CS(=O)(=O)Cc1ccc(CNc2ncnc(N3CCCC3c3ccc(C(F)(F)F)cc3)c2F)cc1 (stereo not drawn) [Example 95, 5-fluoro-N-[[4-(methylsulfonylmethyl)phenyl]methyl]-6-[2-[4-(trifluoromethyl)phenyl]pyrrolidin-1-yl]pyrimidin-4-amine] | < 1000 nM |
| Fc1c(NCC2CCCOC2)ncnc1N1CCC[C@@H]1c1ccc(C(F)(F)F)cc1 (stereo partly drawn) [Example 186, 5-fluoro-N-(tetrahydropyran-3-ylmethyl)-6-[(2R)-2-[4-(trifluoromethyl)phenyl]pyrrolidin-1-yl]pyrimidin-4-amine] | < 500 nM |
| OCc1cccc(CNc2ncnc(N3CCC[C@@H]3c3ccc(C(F)(F)F)cc3)c2F)c1 [Example 217, [3-[[[5-fluoro-6-[(2R)-2-[4-(trifluoromethyl)phenyl]pyrrolidin-1-yl]pyrimidin-4-yl]amino]methyl]phenyl]methanol] | < 10000 nM |
| O=C1CCCN1c1cccc(CNc2ncnc(N3CCCC3c3ccc(C(F)(F)F)cc3)c2F)c1 (stereo not drawn) [Example 143, 1-[3-[[[5-fluoro-6-[2-[4-(trifluoromethyl)phenyl]pyrrolidin-1-yl]pyrimidin-4-yl]amino]methyl]phenyl]pyrrolidin-2-one] | < 2000 nM |
| O=C1CCCN1c1ccc(CNc2ncnc(N3CCCC3c3ccc(C(F)(F)F)cc3)c2F)cc1 (stereo not drawn) [Example 137, 1-[4-[[[5-fluoro-6-[2-[4-(trifluoromethyl)phenyl]pyrrolidin-1-yl]pyrimidin-4-yl]amino]methyl]phenyl]pyrrolidin-2-one] | < 10000 nM |
| CC(C)(C)CCNc1ncnc(N2CCCC2c2ccc(C(F)(F)F)cc2)c1F (stereo not drawn) [Example 21, N-(3,3-dimethylbutyl)-5-fluoro-6-[2-[4-(trifluoromethyl)phenyl]pyrrolidin-1-yl]pyrimidin-4-amine] | < 10000 nM |
| Cc1nn(C)cc1C1CCCN1c1ncnc(NCc2ccc(CC(N)=O)cc2)c1F (stereo not drawn) [Example 317, 2-[4-[[[6-[2-(1,3-dimethylpyrazol-4-yl)pyrrolidin-1-yl]-5-fluoro-pyrimidin-4-yl]amino]methyl]phenyl]acetamide] | < 10000 nM |
| Cc1nc(N[C@H](CC(C)(C)C)C(N)=O)c(C)c(N2CCCC2c2ccc(C(F)(F)F)cc2)n1 (stereo partly drawn) [Example 15, (2R)-2-[[2,5-dimethyl-6-[2-[4-(trifluoromethyl)phenyl]pyrrolidin-1-yl]pyrimidin-4-yl]amino]-4,4-dimethyl-pentanamide] | < 10000 nM |
| COC1CC(c2ccc(C(F)(F)F)cc2)N(c2ncnc(NCc3ccc(C)nc3)c2F)C1 (stereo not drawn) [Example 212, 5-fluoro-6-[4-methoxy-2-[4-(trifluoromethyl)phenyl]pyrrolidin-1-yl]-N-[(6-methyl-3-pyridyl)methyl]pyrimidin-4-amine] | < 10000 nM |
| Oc1nnc(CNc2ncnc(N3CCCC3c3ccc(C(F)(F)F)cc3)c2F)o1 (stereo not drawn) [Example 214, 5-(((5-fluoro-6-(2-(4-(trifluoromethyl)phenyl)pyrrolidin-1-yl)pyrimidin-4-yl)amino)methyl)-1,3,4-oxadiazol-2-ol] | < 10000 nM |
| COC(=O)Cc1ccc(CNc2ncnc(N3CCCC3c3ccc(C(F)(F)F)cc3)c2F)cc1 (stereo not drawn) [Example 70, methyl 2-[4-[[[5-fluoro-6-[2-[4-(trifluoromethyl)phenyl]pyrrolidin-1-yl]pyrimidin-4-yl]amino]methyl]phenyl]acetate] | < 2000 nM |
| Fc1c(NCc2cccnc2)ncnc1N1CCCC1c1ccc(C(F)(F)F)cc1 (stereo not drawn) [Example 141, 5-fluoro-N-(3-pyridylmethyl)-6-[2-[4-(trifluoromethyl)phenyl]pyrrolidin-1-yl]pyrimidin-4-amine] | < 2000 nM |
| CC(C)(C)C[C@@H](Nc1ncnc(N2CCC[C@@H]2c2ccc(C(F)(F)F)cc2)c1F)C(N)=O (single isomer, unassigned) [Example 5, (2R)-2-[[5-fluoro-6-[(2R)-2-[4-(trifluoromethyl)phenyl]pyrrolidin-1-yl]pyrimidin-4-yl]amino]-4,4-dimethyl-pentanamide or (2R)-2-[[5-fluoro-6-[(2S)-2-[4-(trifluoromethyl)phenyl]pyrrolidin-1-yl]pyrimidin-4-yl]amino]-4,4-dimethyl-pentanamide] | < 500 nM |
| O=C(O)C1(CNc2ncnc(N3CCOCC3c3ccc(C(F)(F)F)cc3)c2F)CCOCC1 (stereo not drawn) [Example 268, 4-[[[5-fluoro-6-[3-[4-(trifluoromethyl)phenyl]morpholin-4-yl]pyrimidin-4-yl]amino]methyl]tetrahydropyran-4-carboxylic acid] | < 10000 nM |
| Fc1c(NCc2ccc(C(F)(F)F)cc2)ncnc1N1CCCC1c1ccc(C(F)(F)F)cc1 (stereo not drawn) [Example 48, 5-fluoro-N-[[4-(trifluoromethyl)phenyl]methyl]-6-[2-[4-(trifluoromethyl)phenyl]pyrrolidin-1-yl]pyrimidin-4-amine] | < 2000 nM |
| NS(=O)(=O)Cc1ccc(CNc2ncnc(N3CCCC3c3ccc(C(F)(F)F)cc3)c2F)cc1 (stereo not drawn) [Example 46, [4-[[[5-fluoro-6-[2-[4-(trifluoromethyl)phenyl]pyrrolidin-1-yl]pyrimidin-4-yl]amino]methyl]phenyl]methane-sulfonamide] | < 1000 nM |
| COc1cc(CNc2ncnc(N3CCCC3c3ccc(C(F)(F)F)cc3)c2F)cc(OC)c1 (stereo not drawn) [Example 142, N-[(3,5-dimethoxyphenyl)methyl]-5-fluoro-6-[2-[4-(trifluoromethyl)phenyl]pyrrolidin-1-yl]pyrimidin-4-amine] | < 2000 nM |
| CS(=O)(=O)c1ccc(Cn2ccc3c(N4CCOC[C@@H]4c4ccc(OC(F)(F)F)cc4)ncnc32)nc1 [Example 330, (3S)-4-[7-[(5-methylsulfonyl-2-pyridyl)methyl]pyrrolo[2,3-d]pyrimidin-4-yl]-3-[4-(trifluoromethoxy)phenyl] morpholine] | < 2000 nM |
| NC(=O)Cc1ccc(CNc2ncnc(N3CCCC3c3cccc4ccccc34)c2F)cc1 (stereo not drawn) [Example 311, 2-[4-[[[5-fluoro-6-[2-(1-naphthyl)pyrrolidin-1-yl]pyrimidin-4-yl]amino]methyl]phenyl] acetamide] | < 500 nM |
| CC(C)(C)C[C@@H](Nc1ncnc(N2CCCC2c2ccc(Cl)cc2Cl)c1F)C(N)=O (stereo partly drawn) [Example 11, (2R)-2-[[6-[2-(2,4-dichlorophenyl)pyrrolidin-1-yl]-5-fluoro-pyrimidin-4-yl]amino]-4,4-dimethyl-pentanamide] | < 500 nM |
| NC(=O)C1(CNc2ncnc(N3CCOC[C@@H]3c3ccc(C(F)(F)F)cc3)c2F)CCCC1 [Example 249, 1-[[[5-fluoro-6-[(3S)-3-[4-(trifluoromethyl)phenyl]morpholin-4-yl]pyrimidin-4-yl]amino]methyl] cyclopentanecarboxamide] | < 10000 nM |
| Fc1c(NCC2CCCO2)ncnc1N1CCC[C@@H]1c1ccc(C(F)(F)F)cc1 (stereo partly drawn) [Example 181, 5-fluoro-N-(tetrahydrofuran-2-ylmethyl)-6-[(2R)-2-[4-(trifluoromethyl)phenyl]pyrrolidin-1-yl]pyrimidin-4-amine] | < 10000 nM |
| O=C(O)C[C@H]1CC[C@H](CNc2ncnc(N3CCOC[C@@H]3c3ccc(OC(F)(F)F)cc3)c2F)CC1 [Example 243, 2-[4-[[[5-fluoro-6-[(3S)-3-[4-(trifluoromethoxy)phenyl]morpholin-4-yl]pyrimidin-4-yl]amino]methyl]cyclohexyl]acetic acid] | < 500 nM |
| Cc1nc(C2CCCN2c2ncnc(NCc3ccc(CC(N)=O)cc3)c2F)no1 (stereo not drawn) [Example 314, 2-[4-[[[5-fluoro-6-[2-(5-methyl-1,2,4-oxadiazol-3-yl)pyrrolidin-1-yl]pyrimidin-4-yl]amino]methyl]phenyl]acetamide] | < 10000 nM |

Biological target: T2, yeast Gal4-DNA binding domain fused to the ligand binding domain of human RORγ (Homo sapiens, UniProt P51449)
T2 construct: host or cells: HEK293t
T2 sequence (P51449 269-508 limits assumed): T1 sequence (P51449 269-508 limits assumed)
Experiment: RORγ Reporter Assay (Gal4)
Type: cell-based
Settings: RORγ Reporter Assay (Gal4) at 0.1 μM; values given as lower bounds of ranges
Description: The activity of the compounds was evaluated using a Fluorescence Polarization (FP) Assay and, in most cases, a Th17 Assay and/or RORγ Reporter assay (also referred to as Gal4 assay). The FP assay is an in vitro assay monitoring binding within the ligand binding pocket. The RORγ and the Th17 assays are both cell-based assays monitoring functional activity of the compound assayed.
Cell-based RORγ functional assays were performed using a commercially available assay product (INDIGO Biosciences, State College, Pa., USA; product # IB04001). The RORγ reporter cells are HEK293t cells transfected with one vector that provides high level constitutive expression of a hybrid protein comprised of the yeast Gal4-DNA binding domain fused to the ligand binding domain of human RORγ, and a second vector comprising the firefly luciferase cDNA functionally linked to the upstream activation sequence (UAS) of yeast Gal4. A suspension of RORγ Reporter Cells was prepared using the protocol and culture medium provided in the kit product, and 100 μl of the Reporter Cell suspension was then dispensed into wells of a white, collagen-treated, 96-well assay plate. Concentrated stocks of test compounds were prepared in DMSO, then further diluted using media provided in the kit to generate ‘2×-concentration’ treatment media. 100 μl of medium for each respective treatment concentration dispensed into triplicate assay wells, thereby combining with the reporter cells. All media formulations contained 10% charcoal stripped Fetal Bovine Serum, but are otherwise proprietary to INDIGO Biosciences. Final treatment concentrations for each test compound were 1,000 nM and 100 nM, each with 0.1% residual DMSO. Separate control treatments were media supplemented with vehicle only (0.1% DMSO) to determine the constitutive level of RORγ activity in the reporter cells, and the reference inverse-agonist ursolic acid (f.c. 6,000 nM to 8.2 nM in 3-fold decrements) to establish a positive control inverse-agonist dose response. Assay plates were placed in a 37° C., 5% CO2, 85% humidity incubator for 24 hour. Treatment media were then discarded, 100 μl of luciferase detection reagent was added to each well, and relative light units (RLUs) were quantified from each assay well using a plate reading luminometer. Values of average RLU+/−standard deviation were computed for all treatment sets, followed by the calculations of fold-reduction: [Average RLUVehicle/Average RLUTest Cmpd]. Percent-reduction of RORγ activity in response to respective test compound treatments was calculated: [100*(1−[Ave RLUTest Cmpd/Ave RLUVehicle)] where the theoretical minimum reduction (0% reduction) derives from Vehicle treatment only, no treatment compound.

| Compound | Gal4 activity range @ 0.1 μM (% inhibition) |
| --- | --- |
| CS(=O)(=O)Cc1ccc(CNc2ncnc(N3CCCC3c3ccc(C(F)(F)F)cc3)c2F)cc1 (stereo not drawn) [Example 95, 5-fluoro-N-[[4-(methylsulfonylmethyl)phenyl]methyl]-6-[2-[4-(trifluoromethyl)phenyl]pyrrolidin-1-yl]pyrimidin-4-amine] | >20 % inhibition |
| Fc1c(NCC2CCCOC2)ncnc1N1CCC[C@@H]1c1ccc(C(F)(F)F)cc1 (stereo partly drawn) [Example 186, 5-fluoro-N-(tetrahydropyran-3-ylmethyl)-6-[(2R)-2-[4-(trifluoromethyl)phenyl]pyrrolidin-1-yl]pyrimidin-4-amine] | >0 % inhibition |

Same assay, conditions: RORγ Reporter Assay (Gal4) at 1 μM; values given as lower bounds of ranges

| Compound | Gal4 activity range @ 1 μM (% inhibition) |
| --- | --- |
| CS(=O)(=O)Cc1ccc(CNc2ncnc(N3CCCC3c3ccc(C(F)(F)F)cc3)c2F)cc1 (stereo not drawn) [Example 95, 5-fluoro-N-[[4-(methylsulfonylmethyl)phenyl]methyl]-6-[2-[4-(trifluoromethyl)phenyl]pyrrolidin-1-yl]pyrimidin-4-amine] | >80 % inhibition |
